We go through 18 compounds from ChEMBL document CHEMBL5291721, “A preclinical secondary pharmacology resource illuminates target-adverse drug reaction associations of marketed drugs” (Nat Commun, 2023).

Test [1] deals with Hydroxycarboxylic acid receptor 2 (Homo sapiens, UniProt Q8TDS4).
The target in test [2] is T1, Alpha-1A adrenergic receptor (Homo sapiens, UniProt P35348).
T1 sequence (P35348 whole entry): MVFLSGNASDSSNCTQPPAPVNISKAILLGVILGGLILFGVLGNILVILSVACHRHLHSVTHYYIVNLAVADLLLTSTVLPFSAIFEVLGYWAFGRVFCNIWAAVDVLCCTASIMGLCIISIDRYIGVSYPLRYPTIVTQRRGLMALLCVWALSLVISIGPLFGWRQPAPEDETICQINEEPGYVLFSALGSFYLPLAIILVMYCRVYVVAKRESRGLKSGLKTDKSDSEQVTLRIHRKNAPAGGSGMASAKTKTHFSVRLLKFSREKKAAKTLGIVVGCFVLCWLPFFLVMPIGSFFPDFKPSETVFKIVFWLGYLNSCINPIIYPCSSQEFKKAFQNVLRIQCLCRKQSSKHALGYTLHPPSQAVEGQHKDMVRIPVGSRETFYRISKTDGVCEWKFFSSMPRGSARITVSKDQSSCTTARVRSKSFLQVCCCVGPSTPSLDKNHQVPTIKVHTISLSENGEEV

Another test deals with T2, Glucocorticoid receptor (Homo sapiens, UniProt P04150).
T2 sequence (P04150 whole entry): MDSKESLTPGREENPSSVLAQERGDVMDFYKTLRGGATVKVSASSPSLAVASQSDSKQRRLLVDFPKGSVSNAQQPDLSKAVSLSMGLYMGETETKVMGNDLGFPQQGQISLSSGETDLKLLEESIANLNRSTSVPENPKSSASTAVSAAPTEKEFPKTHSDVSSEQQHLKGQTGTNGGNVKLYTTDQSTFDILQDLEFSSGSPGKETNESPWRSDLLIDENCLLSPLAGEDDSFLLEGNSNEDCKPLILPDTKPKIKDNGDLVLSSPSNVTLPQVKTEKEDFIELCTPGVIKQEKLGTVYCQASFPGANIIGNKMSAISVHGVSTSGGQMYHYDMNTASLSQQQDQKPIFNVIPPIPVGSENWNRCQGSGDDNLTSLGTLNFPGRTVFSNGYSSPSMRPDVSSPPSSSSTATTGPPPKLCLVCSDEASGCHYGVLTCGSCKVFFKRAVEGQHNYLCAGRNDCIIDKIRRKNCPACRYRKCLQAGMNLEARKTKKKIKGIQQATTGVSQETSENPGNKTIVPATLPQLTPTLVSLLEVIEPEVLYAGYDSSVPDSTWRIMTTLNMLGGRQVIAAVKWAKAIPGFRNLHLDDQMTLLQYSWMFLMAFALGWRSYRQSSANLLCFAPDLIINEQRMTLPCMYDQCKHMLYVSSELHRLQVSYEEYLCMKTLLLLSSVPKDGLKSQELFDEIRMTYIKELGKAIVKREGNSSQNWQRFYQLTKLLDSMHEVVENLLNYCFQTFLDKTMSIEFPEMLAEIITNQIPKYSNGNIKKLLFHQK
Type of test: functional.

Test [3] has as its target T3, Muscarinic acetylcholine receptor M4 (Homo sapiens, UniProt P08173).
T3 sequence (P08173 whole entry): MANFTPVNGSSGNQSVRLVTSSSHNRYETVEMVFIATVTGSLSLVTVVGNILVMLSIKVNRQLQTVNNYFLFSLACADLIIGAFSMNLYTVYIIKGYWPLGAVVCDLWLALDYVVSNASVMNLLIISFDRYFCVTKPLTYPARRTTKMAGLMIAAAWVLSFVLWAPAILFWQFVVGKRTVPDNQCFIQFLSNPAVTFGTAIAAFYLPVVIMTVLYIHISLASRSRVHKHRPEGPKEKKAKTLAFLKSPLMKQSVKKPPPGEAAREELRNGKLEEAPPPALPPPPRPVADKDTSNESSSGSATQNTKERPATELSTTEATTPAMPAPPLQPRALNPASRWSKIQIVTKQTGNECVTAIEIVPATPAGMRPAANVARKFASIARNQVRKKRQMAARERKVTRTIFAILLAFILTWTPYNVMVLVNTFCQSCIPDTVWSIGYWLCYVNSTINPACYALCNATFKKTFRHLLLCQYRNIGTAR

The target of test [4] is T4, Muscarinic acetylcholine receptor M5 (Homo sapiens, UniProt P08912).
T4 sequence (P08912 whole entry): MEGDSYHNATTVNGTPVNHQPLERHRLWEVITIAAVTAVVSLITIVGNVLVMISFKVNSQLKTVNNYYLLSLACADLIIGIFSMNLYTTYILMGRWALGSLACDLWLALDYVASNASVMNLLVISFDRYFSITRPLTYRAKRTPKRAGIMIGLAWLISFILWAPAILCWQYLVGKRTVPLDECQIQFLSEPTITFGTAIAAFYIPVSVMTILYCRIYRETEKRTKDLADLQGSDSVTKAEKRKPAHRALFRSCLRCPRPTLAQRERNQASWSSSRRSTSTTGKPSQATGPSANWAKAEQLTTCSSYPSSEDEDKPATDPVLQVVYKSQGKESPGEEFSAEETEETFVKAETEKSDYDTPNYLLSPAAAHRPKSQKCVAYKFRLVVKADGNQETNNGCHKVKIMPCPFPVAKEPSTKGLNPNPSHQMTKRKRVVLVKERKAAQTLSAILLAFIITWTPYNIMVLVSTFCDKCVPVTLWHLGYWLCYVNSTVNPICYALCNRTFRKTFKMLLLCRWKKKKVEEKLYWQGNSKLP

The target of another test is D(1B) dopamine receptor (Homo sapiens, UniProt P21918).
Chain of D(1B) dopamine receptor (P21918 whole entry): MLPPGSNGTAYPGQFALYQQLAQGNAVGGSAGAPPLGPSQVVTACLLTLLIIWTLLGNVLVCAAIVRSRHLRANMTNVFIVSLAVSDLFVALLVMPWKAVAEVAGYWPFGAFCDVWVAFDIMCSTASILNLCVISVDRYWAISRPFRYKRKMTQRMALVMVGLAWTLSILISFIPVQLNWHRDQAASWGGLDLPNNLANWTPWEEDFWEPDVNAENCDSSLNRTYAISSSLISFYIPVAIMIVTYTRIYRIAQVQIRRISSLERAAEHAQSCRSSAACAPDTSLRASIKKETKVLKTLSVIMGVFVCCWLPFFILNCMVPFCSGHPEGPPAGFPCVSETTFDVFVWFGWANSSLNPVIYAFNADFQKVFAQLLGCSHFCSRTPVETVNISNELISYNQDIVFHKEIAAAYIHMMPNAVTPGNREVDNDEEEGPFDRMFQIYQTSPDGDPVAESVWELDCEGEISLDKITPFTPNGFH
Test [5] deals with Gamma-aminobutyric acid type B receptor subunit 1 (Homo sapiens, UniProt Q9UBS5).
Chain of Gamma-aminobutyric acid type B receptor subunit 1 (Q9UBS5 whole entry): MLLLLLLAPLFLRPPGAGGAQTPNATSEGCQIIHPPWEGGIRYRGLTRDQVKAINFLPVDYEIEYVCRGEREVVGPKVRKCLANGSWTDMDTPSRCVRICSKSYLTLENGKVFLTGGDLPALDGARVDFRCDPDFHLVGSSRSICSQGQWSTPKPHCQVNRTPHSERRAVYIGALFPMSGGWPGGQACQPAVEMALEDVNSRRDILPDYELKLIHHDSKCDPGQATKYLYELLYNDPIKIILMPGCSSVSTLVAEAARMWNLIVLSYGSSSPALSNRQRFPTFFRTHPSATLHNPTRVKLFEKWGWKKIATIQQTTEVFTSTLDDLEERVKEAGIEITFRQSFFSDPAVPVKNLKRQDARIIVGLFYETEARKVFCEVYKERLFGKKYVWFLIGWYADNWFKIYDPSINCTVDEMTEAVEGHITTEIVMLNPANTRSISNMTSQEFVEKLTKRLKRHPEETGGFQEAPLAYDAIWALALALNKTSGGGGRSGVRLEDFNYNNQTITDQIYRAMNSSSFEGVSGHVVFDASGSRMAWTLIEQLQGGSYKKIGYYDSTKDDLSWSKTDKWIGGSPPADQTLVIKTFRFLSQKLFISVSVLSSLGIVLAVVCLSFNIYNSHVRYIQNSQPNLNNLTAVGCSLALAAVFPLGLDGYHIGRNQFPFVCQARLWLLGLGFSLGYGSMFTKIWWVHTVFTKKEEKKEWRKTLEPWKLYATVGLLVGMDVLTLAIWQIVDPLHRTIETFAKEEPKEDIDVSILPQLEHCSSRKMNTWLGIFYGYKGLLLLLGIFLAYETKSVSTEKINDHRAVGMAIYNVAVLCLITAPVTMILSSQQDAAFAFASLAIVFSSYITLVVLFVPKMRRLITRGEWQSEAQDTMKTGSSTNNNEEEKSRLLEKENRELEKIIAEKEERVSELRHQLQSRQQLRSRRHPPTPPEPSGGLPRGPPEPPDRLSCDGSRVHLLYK
Test [6] addresses 5-hydroxytryptamine receptor 5A (Homo sapiens, UniProt P47898).
The target in another test is T5, Substance-K receptor (Homo sapiens, UniProt P21452).
T5 sequence (P21452 whole entry): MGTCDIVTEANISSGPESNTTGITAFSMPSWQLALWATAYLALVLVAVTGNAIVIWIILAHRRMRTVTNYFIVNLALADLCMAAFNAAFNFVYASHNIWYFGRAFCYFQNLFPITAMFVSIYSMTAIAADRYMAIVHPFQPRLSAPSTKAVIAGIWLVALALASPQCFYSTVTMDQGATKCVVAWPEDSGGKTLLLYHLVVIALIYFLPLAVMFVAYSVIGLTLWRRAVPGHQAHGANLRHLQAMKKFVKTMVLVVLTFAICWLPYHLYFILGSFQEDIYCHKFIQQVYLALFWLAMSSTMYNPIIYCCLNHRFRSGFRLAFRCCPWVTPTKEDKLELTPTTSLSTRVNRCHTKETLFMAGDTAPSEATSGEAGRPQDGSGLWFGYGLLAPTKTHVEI

The target in test [7] is Beta-1 adrenergic receptor (Homo sapiens, UniProt P08588). Type of test: functional, cell-based.
Chain of Beta-1 adrenergic receptor (P08588 whole entry): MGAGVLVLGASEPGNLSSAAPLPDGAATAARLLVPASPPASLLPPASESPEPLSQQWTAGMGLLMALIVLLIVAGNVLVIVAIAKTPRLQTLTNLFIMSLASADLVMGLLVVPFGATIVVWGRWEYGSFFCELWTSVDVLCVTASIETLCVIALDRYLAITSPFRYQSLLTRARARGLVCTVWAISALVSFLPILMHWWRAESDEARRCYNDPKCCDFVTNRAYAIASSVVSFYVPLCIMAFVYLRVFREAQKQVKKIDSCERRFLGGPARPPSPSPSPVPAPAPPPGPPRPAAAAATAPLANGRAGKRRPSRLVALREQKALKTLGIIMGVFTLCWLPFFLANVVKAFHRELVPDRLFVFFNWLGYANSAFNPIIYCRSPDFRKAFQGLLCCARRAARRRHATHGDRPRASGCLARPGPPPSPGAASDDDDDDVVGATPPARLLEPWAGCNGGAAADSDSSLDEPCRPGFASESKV
Further: assay procedure not described here.

Chain of Hydroxycarboxylic acid receptor 2 (Q8TDS4 whole entry): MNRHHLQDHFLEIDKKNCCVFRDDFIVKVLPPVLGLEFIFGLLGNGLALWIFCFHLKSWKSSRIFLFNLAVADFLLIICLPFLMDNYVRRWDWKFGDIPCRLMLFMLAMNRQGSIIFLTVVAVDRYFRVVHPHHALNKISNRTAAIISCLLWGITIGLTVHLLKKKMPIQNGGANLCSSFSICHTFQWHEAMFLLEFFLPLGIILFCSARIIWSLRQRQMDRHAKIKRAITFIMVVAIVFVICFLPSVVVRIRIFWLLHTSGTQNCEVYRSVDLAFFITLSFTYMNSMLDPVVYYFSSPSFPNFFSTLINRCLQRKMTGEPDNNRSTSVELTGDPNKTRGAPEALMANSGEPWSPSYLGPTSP
Chain of 5-hydroxytryptamine receptor 5A (P47898 whole entry): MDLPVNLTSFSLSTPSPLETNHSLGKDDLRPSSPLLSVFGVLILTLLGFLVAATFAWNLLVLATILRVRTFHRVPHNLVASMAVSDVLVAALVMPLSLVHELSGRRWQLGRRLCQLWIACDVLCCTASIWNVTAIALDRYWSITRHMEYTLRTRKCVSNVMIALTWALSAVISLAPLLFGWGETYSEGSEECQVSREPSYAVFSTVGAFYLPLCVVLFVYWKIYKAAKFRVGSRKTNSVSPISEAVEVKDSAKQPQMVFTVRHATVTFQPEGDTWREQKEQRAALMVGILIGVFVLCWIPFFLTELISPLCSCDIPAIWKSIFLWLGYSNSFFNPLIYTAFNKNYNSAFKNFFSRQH

Consider `O=C(O[C@H]1C[N+]2(CCCOc3ccccc3)CCC1CC2)C(O)(c1cccs1)c1cccs1` [ACLIDINIUM BROMIDE], for which the AC50 in test [1] was greater than 10 µM; in [2] it was 5.1 µM.

As to `Cc1nnc2n1-c1ccc(Cl)cc1C(c1ccccc1)=NC2` [ALPRAZOLAM], the AC50 in [1] was greater than 10 µM.

Turning to `COc1ccc(-n2nc(C(N)=O)c3c2C(=O)N(c2ccc(N4CCCCC4=O)cc2)CC3)cc1` [APIXABAN], the AC50 on Glucocorticoid receptor is greater than 30 µM.

For `CC(NC(C)(C)C)C(=O)c1cccc(Cl)c1` (stereo not drawn) [BUPROPION], the AC50 (in [3]; in test [4]; at D(1B) dopamine receptor; in [5]; in test [6]; at Substance-K receptor) was greater than 10 µM in each case. The compound further displayed an AC50 in [2] greater than 10 µM.

As to `O=C1CN=C(c2ccccc2Cl)c2cc([N+](=O)[O-])ccc2N1` [CLONAZEPAM], the AC50 in [1] and in test [2] was greater than 10 µM throughout.

Consider `CCCCCCOC(=O)NC(=N)c1ccc(NCc2nc3cc(C(=O)N(CCC(=O)OCC)c4ccccn4)ccc3n2C)cc1` [DABIGATRAN ETEXILATE], for which the AC50 at Glucocorticoid receptor is greater than 30 µM.

`Cc1ccc(-c2ncc(Cl)cc2-c2ccc(S(C)(=O)=O)cc2)cn1` [ETORICOXIB]: the AC50 (in [3]; in test [4]; on D(1B) dopamine receptor; in test [5]; in test [6]; at Substance-K receptor) was greater than 10 µM in each case. The same compound gave an AC50 in [2] greater than 10 µM.

With `CCOC(=O)C1=C(C)NC(C)=C(C(=O)OC)C1c1cccc(Cl)c1Cl` (stereo not drawn) [FELODIPINE], the AC50 in [2] is greater than 10 µM.

`CC(=O)OCC(=O)[C@@]1(O)CC[C@H]2[C@@H]3CCC4=CC(=O)CC[C@]4(C)[C@@]3(F)[C@@H](O)C[C@@]21C` [FLUDROCORTISONE ACETATE]: the AC50 in [7] is greater than 30 µM.

In turn, `CN1C(=O)CN=C(c2ccccc2F)c2cc([N+](=O)[O-])ccc21` [FLUNITRAZEPAM] gave an AC50 in [2] greater than 10 µM.

Compound `Cc1ccc(S(=O)(=O)NC(=O)N[C@H]2[C@H]3CC[C@@](C)([C@H]2O)C3(C)C)cc1` [GLIBORNURIDE] gave an AC50 in test [7] greater than 30 µM.

`CN1C2CCCC1CC(NC(=O)c1nn(C)c3ccccc13)C2` (stereo not drawn) [GRANISETRON]: the AC50 (in [3]; in [4]; at D(1B) dopamine receptor; in [6]; on Substance-K receptor; in test [2]) was greater than 10 µM in each case.

Consider `COc1ccc2c3c1O[C@H]1C(=O)CC[C@H]4[C@@H](C2)N(C)CC[C@]314` [HYDROCODONE], for which the AC50 in test [1] and in test [2] was greater than 10 µM each time.

Compound `CC(=O)N1CCN(c2ccc(OCC3COC(Cn4ccnc4)(c4ccc(Cl)cc4Cl)O3)cc2)CC1` (stereo not drawn) [KETOCONAZOLE] showed an AC50 at Glucocorticoid receptor greater than 30 µM.

On to `CCN(CC)CC(=O)Nc1c(C)cccc1C` [LIDOCAINE], for which the AC50 on Substance-K receptor is greater than 10 µM.

Compound `COc1nc(C)nc(Cl)c1N=C1NCCN1` [MOXONIDINE] yielded an AC50 in test [7] greater than 30 µM.

In [7], `CN1CCCN=C1/C=C/c1cccc(O)c1` [OXANTEL] yielded an AC50 greater than 30 µM.

Turning to `CC(C)(N)Cc1ccccc1` [PHENTERMINE], the AC50 in [5] was greater than 10 µM.
